The target of test [1] is T1, NS5B from the BK strain (genotype 1b) (Hepatitis C virus genotype 1b, UniProt P26663).
T1 construct: NS5B from the BK strain (genotype 1b) is expressed in E. coli as a protein in which the 21 C-terminal amino acids are replaced; made in house; host or cells: E. coli
Put plainly: Hepatitis C polymerase inhibition, NS5B BK strain, 33P-GTP filter assay. Type of test: biochemical. The note with it: Table 1B; NS5B BK strain; read-out: BK IC50. In outline:
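E. coli-expressed NS5B (BK, genotype 1b) with the 21 C-terminal residues replaced by a linker-His6 tag was preincubated with compound for 15 min at room temperature. It then extended a hairpin-primed heteropolymeric RNA (~3 nM, ~760 nt product) with α-[33P]-GTP for 2 h at 22–25° C. The reaction was stopped with EDTA, and incorporated label was counted on filters.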

Test [2] has as its target BB7 (RNA-dependent RNA polymerase hepatitis C virus protein sequence derived from HCV replicon) (Hepatitis C virus genotype 1b, UniProt Q9WMX2). Put plainly: Hepatitis C polymerase inhibition, BB7 sequence. Type of test: biochemical. The note with it: Table 1B.

T1 sequence (P26663 2420-2989): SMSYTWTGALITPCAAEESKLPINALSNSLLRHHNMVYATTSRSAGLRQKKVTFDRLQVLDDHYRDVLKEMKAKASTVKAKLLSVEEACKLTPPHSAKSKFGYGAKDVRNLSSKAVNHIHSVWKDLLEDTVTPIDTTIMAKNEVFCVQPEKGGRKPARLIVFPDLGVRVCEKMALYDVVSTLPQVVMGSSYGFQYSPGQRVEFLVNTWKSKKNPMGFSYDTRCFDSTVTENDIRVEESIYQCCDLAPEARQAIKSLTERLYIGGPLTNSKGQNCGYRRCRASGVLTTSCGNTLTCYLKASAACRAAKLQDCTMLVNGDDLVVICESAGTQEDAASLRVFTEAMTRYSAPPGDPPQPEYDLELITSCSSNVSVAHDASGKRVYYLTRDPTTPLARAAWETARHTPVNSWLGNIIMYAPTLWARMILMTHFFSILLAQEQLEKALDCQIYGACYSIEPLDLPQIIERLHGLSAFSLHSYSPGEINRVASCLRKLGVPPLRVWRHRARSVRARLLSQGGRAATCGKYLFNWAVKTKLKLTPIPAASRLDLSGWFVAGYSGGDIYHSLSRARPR
Sequence of BB7 (RNA-dependent RNA polymerase hepatitis C virus protein sequence derived from HCV replicon) (Q9WMX2 2420-3010): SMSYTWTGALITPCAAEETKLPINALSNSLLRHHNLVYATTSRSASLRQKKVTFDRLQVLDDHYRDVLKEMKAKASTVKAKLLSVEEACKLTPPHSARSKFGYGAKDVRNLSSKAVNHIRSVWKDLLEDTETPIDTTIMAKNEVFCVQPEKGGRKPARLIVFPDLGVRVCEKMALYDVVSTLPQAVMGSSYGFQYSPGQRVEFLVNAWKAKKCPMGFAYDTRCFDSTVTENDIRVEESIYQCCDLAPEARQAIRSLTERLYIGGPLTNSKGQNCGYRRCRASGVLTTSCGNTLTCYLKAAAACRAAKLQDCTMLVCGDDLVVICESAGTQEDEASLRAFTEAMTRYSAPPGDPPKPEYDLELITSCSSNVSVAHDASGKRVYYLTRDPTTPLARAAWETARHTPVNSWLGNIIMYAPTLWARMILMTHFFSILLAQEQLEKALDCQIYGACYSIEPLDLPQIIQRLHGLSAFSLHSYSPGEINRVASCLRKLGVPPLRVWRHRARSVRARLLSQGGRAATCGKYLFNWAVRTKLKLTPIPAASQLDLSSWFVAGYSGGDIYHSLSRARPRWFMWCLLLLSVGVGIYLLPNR

On to `O=C(O)CC1(CCC(F)(F)F)OCCc2c1[nH]c1ccc(Cl)c(Cl)c21` (stereo not drawn) [Example 239, [5,6-dichloro-1-(3,3,3-trifluoropropyl)-1,3,4,9-tetrahydropyrano[3,4-b]indol-1-yl]acetic acid], for which the IC50 was determined as 4.6 µM in test [1] and 5.4 µM in test [2].

On to `N#Cc1ccc(F)c2[nH]c3c(c12)CCOC3(C(=O)O)C1CCCC1` (stereo not drawn) [Example 350, (5-cyano-1-cyclopentyl-8-fluoro-1,3,4,9-tetrahydropyrano[3,4-b]indol-1-yl)carboxylic acid], for which the IC50 in test [1] and in test [2] was more than 30 µM in each case.

Take `CCCC1(C(=O)O)OCCc2c1[nH]c1c(CC)ccc(C#N)c21` (stereo not drawn) [Example 340, (5-cyano-8-ethyl-1-propyl-1,3,4,9-tetrahydropyrano[3,4-b]indol-1-yl)carboxylic acid]: the IC50 in test [1] was more than 30 µM; in test [2], more than 28 µM.

In the case of `Cc1ccc(Cl)c2c3c([nH]c12)C(CC(=O)O)(C1CCC1)OCC3` (stereo not drawn) [Example 259, (5-chloro-1-cyclobutyl-8-methyl-1,3,4,9-tetrahydropyrano[3,4-b]indol-1-yl)acetic acid], the IC50 in test [1] worked out at 0.5 µM; in test [2], 1.6 µM.

As for `CCCC1(C(=O)O)OCCc2c1[nH]c1c(F)ccc(C(F)(F)F)c21` (stereo not drawn) [Example 332, (8-fluoro-5-trifluoromethyl-1-propyl-1,3,4,9-tetrahydropyrano[3,4-b]indol-1-yl)carboxylic acid], the IC50 in test [1] was 6.4 µM; in test [2] it was 14 µM.

For `CCCC1(C(=O)O)OCCc2c1[nH]c1c(F)ccc(C#N)c21` (stereo not drawn) [Example 342, (5-cyano-8-fluoro-1-propyl-1,3,4,9-tetrahydropyrano[3,4-b]indol-1-yl)carboxylic acid], the figures for the IC50 in test [1] and in test [2] were 1.7 µM and 10 µM, respectively.

Take `Cc1ccc(C#N)c2c3c([nH]c12)C(CC(=O)O)(C1CC1)OCC3` (stereo not drawn) [Example 283, (5-cyano-1-cyclopropyl-8-methyl-1,3,4,9-tetrahydropyrano[3,4-b]indol-1-yl)acetic acid]: the half-maximal inhibitory concentration (IC50) in test [1] is 15 µM; in test [2], more than 27 µM.

Consider `CC[C@H](C)[C@@]1(C(=O)O)OCCc2c1[nH]c1c(C)ccc(C#N)c21` (relative stereo) [Example 335, (1R*,10S*)-[5-cyano-8-methyl-(1-methylpropyl)-1,3,4,9-tetrahydropyrano[3,4-b]indol-1-yl]carboxylic acid], for which the IC50 in test [1] and in test [2] was more than 30 µM each time.

In the case of `N#Cc1ccc(F)c2[nH]c3c(c12)CCOC3(CCC(F)(F)F)CC(=O)O` (stereo not drawn) [Example 301, [5-cyano-8-fluoro-1-(3,3,3-trifluoropropyl)-1,3,4,9-tetrahydropyrano[3,4-b]indol-1-yl]acetic acid], the figures for the concentration for half-maximal inhibition (IC50) in test [1] and in test [2] were 5.4 µM and 11.3 µM, respectively.

Regarding `CCCNC(=O)c1cc(C#N)c2c3c([nH]c2c1C)C(CCC)(CC(=O)O)OCC3` (stereo not drawn) [Example 354, (5-cyano-8-methyl-1-propyl-7-propylcarbamoyl-1,3,4,9-tetrahydro-pyrano[3,4-b]indol-1-yl)-acetic acid], the IC50 in test [1] was determined as 3 µM; in test [2], 2 µM.

Turning to `O=C(O)CC1(C2CCC2)OCCc2c1[nH]c1ccc(Cl)c(Cl)c21` (stereo not drawn) [Example 235, (5,6-dichloro-1-cyclobutyl-1,3,4,9-tetrahydropyrano[3,4-b]indol-1-yl)acetic acid], the IC50 in test [1] worked out at 5.2 µM; in test [2], 5.4 µM.

As for `O=C(O)CC1(C2CCC2)OCCc2c1[nH]c1c(Cl)ccc(C(F)(F)F)c21` (stereo not drawn) [Example 267, (8-chloro-1-cyclobutyl-5-trifluoromethyl-1,3,4,9-tetrahydropyrano[3,4-b]indol-1-yl)acetic acid], the IC50 in test [1] was determined as 0.66 µM; in test [2] it was 2.3 µM.

Consider `CC[C@H](C)[C@@]1(CC(=O)O)OCCc2c1[nH]c1c(F)ccc(C#N)c21` (racemic) [Example 313, (1R*,10S*)-[5-cyano-8-fluoro-1-(1-methylpropyl)-1,3,4,9-tetrahydropyrano[3,4-b]indol-1-yl]acetic acid], for which the IC50 is 1.8 µM in test [1] and 1.5 µM in test [2].

As to `CCCC1(C(=O)O)OCCc2c1[nH]c1c(C)cc(F)c(C#N)c21` (stereo not drawn) [Example 339, (5-cyano-6-fluoro-8-methyl-1-propyl-1,3,4,9-tetrahydropyrano[3,4-b]indol-1-yl)carboxylic acid], the IC50 is 0.49 µM in test [1] and 2.8 µM in test [2].

Consider `Cc1ccc(C#N)c2c3c([nH]c12)[C@@](CC(=O)O)(C1CCC1)OCC3` [Example 285, (1R)-(5-cyano-1-cyclobutyl-8-methyl-1,3,4,9-tetrahydropyrano[3,4-b]indol-1-yl)acetic acid], for which the values for the 50% inhibitory concentration (IC50) in test [1] and in test [2] were 0.4 µM and 1.1 µM, respectively.

As to “[5-cyano-1-(1-ethylethyl)-8-fluoro-1,3,4,9-tetrahydropyrano[3,4-b]indol-1-yl]acetic acid [Example 311]”, the IC50 in test [1] and in test [2] was more than 30 µM in each case.

Regarding `O=C(O)CC1(CC2CCCC2)OCCc2c1[nH]c1c(Cl)ccc(Cl)c21` (stereo not drawn) [Example 258, (5,8-dichloro-1-cyclopentylmethyl-1,3,4,9-tetrahydropyrano[3,4-b]indol-1-yl)acetic acid], the concentration for half-maximal inhibition (IC50) in test [1] amounted to 9.4 µM; in test [2] it was 14 µM.

On to `C=CCCC1(CC(=O)O)OCCc2c1[nH]c1c(F)ccc(C#N)c21` (stereo not drawn) [Example 302, [1-(3-butenyl)-5-cyano-8-fluoro-1,3,4,9-tetrahydropyrano[3,4-b]indol-1-yl]acetic acid], for which the IC50 in test [1] amounted to 4 µM; in test [2], 18 µM.

For the compound `CCC(C)C1(CC(=O)O)OCCc2c1[nH]c1c(C(N)=O)ccc(C(F)(F)F)c21` [Example 278, (1R*,10S)-[8-aminocarbonyl-1-(1-methylpropyl)-5-trifluoromethyl-1,3,4,9-tetrahydropyrano[3,4-b]indol-1-yl]acetic acid], the half-maximal inhibitory concentration (IC50) was found to be 15 µM in test [1] and 23 µM in test [2].

Regarding `CCCCC1(CC(=O)O)OCCc2c1[nH]c1c(C)ccc(C(F)(F)F)c21` (stereo not drawn) [Example 273, (8-methyl-1-butyl-5-trifluoromethyl-1,3,4,9-tetrahydropyrano[3,4-b]indol-1-yl)acetic acid], the concentration for half-maximal inhibition (IC50) turned out to be 1.4 µM in test [1] and 6.5 µM in test [2].

For `O=C(O)CC1(C2CCCC2)OCCc2c1[nH]c1c(F)ccc(C(F)(F)F)c21` (stereo not drawn) [Example 270, (1-cyclopentyl-8-fluoro-5-trifluoromethyl-1,3,4,9-tetrahydropyrano[3,4-b]indol-1-yl)acetic acid], the IC50 in test [1] worked out at 20 µM; in test [2], 17 µM.

`Cc1ccc(C#N)c2c3c([nH]c12)C(CC(=O)O)(C1CCC1)OCC3` (stereo not drawn) [Example 284, (5-cyano-1-cyclobutyl-8-methyl-1,3,4,9-tetrahydropyrano[3,4-b]indol-1-yl)acetic acid]: the IC50 in test [1] turned out to be 1 µM; in test [2], 2.3 µM.

`CCCC1(CC(=O)O)OCCc2c1[nH]c1c(CC)ccc(C#N)c21` (stereo not drawn) [Example 295, (5-cyano-8-ethyl-1-propyl-1,3,4,9-tetrahydropyrano[3,4-b]indol-1-yl)acetic acid]: the results for the IC50 in test [1] and in test [2] were 3.6 µM and 3.1 µM, respectively.

As to “(8-cyano-1-cyclobutyl-5-trifluoromethyl-1,3,4,9-tetrahydropyrano[3,4-b]indol-1-yl)acetic acid [Example 277]”, the figures for the 50% inhibitory concentration (IC50) in test [1] and in test [2] were 2.6 µM and 6.2 µM, respectively.

By IC50 is commonly meant the concentration needed to halve the response being measured.

The record behind these values is US7217730B2, “Method for the use of pyranoindole derivatives to treat infection with Hepatitis C virus” (Wyeth, priority 2002, dated 2007).
